Reference: patent US8748476B2, “Darifenacin for use in the treatment of urgency induced by overactive bladder” (Warner Chilcott Company, LLC, priority 2002, dated 2014)
Marks after values point to notes of the source that are not given here.

How the values were obtained:
[1] = test system: OAB Wet patients (subjects with a diagnosis of overactive bladder); assay: Clinical Study 1: multicentre trial, diary record of urgency episodes and severity of urgency (VAS); format: in vivo, human; conditions: for No of episodes of urgency/day, Median change from baseline / No of episodes of urgency/day, Median % Change from baseline: 12 weeks of treatment; for No of episodes of urgency/day, Median change from baseline: placebo −1.2; for No of episodes of urgency/day, Median % Change from baseline: placebo −15.7; for No of episodes of urgency/day, Median difference from placebo / Severity of urgency/day, Median difference from placebo: corrected for placebo; for No of episodes of urgency/day, Median difference from placebo / Severity of urgency/day, Median change from baseline / Severity of urgency/day, Median difference from placebo: 12 weeks; for Severity of urgency/day, Median change from baseline: visual analogue scale (mild to severe), placebo −3.9; for Severity of urgency/day, Median difference from placebo: visual analogue scale
Description: Two novel methods for the assessment of urgency were used. The first was for use in a large scale clinical trial, and the second was for use in clinical laboratory studies. In both of these studies, darifenacin was administered as its hydrobromide salt. It was presented in slow release matrix tablets of the type described in U.S. Pat. No. 6,106,864, particularly Example 3. Tablets were administered once daily (o.d.). In this study, OAB Wet patients recorded each episode of urgency per day and the overall severity of urgency for each day in a diary. The severity of urgency was recorded by the use of a visual analogue scale (VAS) where the anchor points were mild and severe. Darifenacin (as hydrobromide salt; 7.5 mg, 15 mg and 30 mg of the active moiety, o.d.) and placebo were evaluated in subjects with a diagnosis of overactive bladder in a multicentre trial and symptoms of urgency were assessed using the VAS at baseline and at the end of the study (12 weeks of treatment). 108 patients (14 male, 94 female) received 7.5 mg; 107 patients (15 male, 92 female) received 15 mg; 114 patients (16 male, 98 female) received 30 mg; and 108 patients (18 male, 90 female) received placebo.

[2] = test system: subjects with symptoms of urgency (mixture of OAB Wet and OAB Dry sufferers); assay: Clinical Study 2: warning time between onset of urgency and need to micturate, measured with a modified stop-watch; format: in vivo, human
Description: Two novel methods for the assessment of urgency were used. The first was for use in a large scale clinical trial, and the second was for use in clinical laboratory studies. In both of these studies, darifenacin was administered as its hydrobromide salt. It was presented in slow release matrix tablets of the type described in U.S. Pat. No. 6,106,864, particularly Example 3. Tablets were administered once daily (o.d.). This study used a novel method for measuring the time between the first onset of the urgency and the need to micturate, which is known as the ‘warning time’. A modified stop-watch was used which required the subject to press a button at the onset of urge and a second button when they felt they needed to micturate. Darifenacin (as the hydrobromide salt; 30 mg o.d.) and placebo were evaluated in subjects with symptoms of urgency. The subjects were a mixture of OAB Wet and OAB Dry sufferers. The ‘warning time’ was assessed at baseline and following 2 weeks of treatment using the modified stop watch. 36 patients (29 female, 7 male) received darifenacin; and 36 patients (22 female, 14 male) received placebo.

[3] = 15 mg o.d., baseline 8.6, P < 0.05
[4] = 30 mg o.d., baseline 8.4, P < 0.001
[5] = 7.5-30 mg, effect significantly greater than that produced by placebo
[6] = 15 mg o.d., baseline 56.2, P < 0.05
[7] = 30 mg o.d., baseline 53.5, P < 0.05
[8] = 30 mg o.d., 2 weeks of treatment

## NC(=O)C(c1ccccc1)(c1ccccc1)[C@@H]1CCN(CCc2ccc3c(c2)CCO3)C1 [Darifenacin, (S)-2-(1-[2-(2,3-dihydrobenzofuran-5-yl)ethyl]-3-pyrrolidinyl)-2,2-diphenyl-acetamide]
[1]; 7.5 mg o.d., baseline 8.5
  No of episodes of urgency/day, Median change from baseline: −1.8 episodes of urgency/day
  No of episodes of urgency/day, Median difference from placebo: −0.5 episodes of urgency/day
[1]; 7.5 mg o.d.
  No of episodes of urgency/day, Median % Change from baseline: −29.2%
[1]; [3]
  No of episodes of urgency/day, Median change from baseline: −2.3* episodes of urgency/day
  No of episodes of urgency/day, Median difference from placebo: −1.1* episodes of urgency/day
[1]; 15 mg o.d.
  No of episodes of urgency/day, Median % Change from baseline: −26.9%
[1]; [4]
  No of episodes of urgency/day, Median change from baseline: −3*** episodes of urgency/day
  No of episodes of urgency/day, Median difference from placebo: −1.4*** episodes of urgency/day
[1]; 30 mg o.d.
  No of episodes of urgency/day, Median % Change from baseline: −33.1%
[1]; [5]
  Effect on number of episodes of urgency: dose-related reduction
  Effect on overall severity of urgency: dose-related reduction
[1]; conclusion drawn from both clinical studies
  Effect on the symptom of urgency in subjects with overactive bladder (conclusion): clinically significant attenuation
[1]; 7.5 mg o.d., baseline 53.2
  Severity of urgency/day, Median change from baseline: −7
  Severity of urgency/day, Median difference from placebo: −2.5
[1]; [6]
  Severity of urgency/day, Median change from baseline: −7*
  Severity of urgency/day, Median difference from placebo: −3.8*
[1]; [7]
  Severity of urgency/day, Median change from baseline: −9.4*
  Severity of urgency/day, Median difference from placebo: −5.5*
[2]; [8]
  Effect on warning time compared with placebo: significant increase
  Warning time, Median difference from placebo: 4.3 min
[2]; 30 mg o.d., 2 weeks of treatment, baseline median 4.7, placebo week 2 4.1, P < 0.01
  Warning Time, Week 2 (Median): 8.4** Min
[2]; both OAB Wet and OAB Dry subjects
  Response of OAB Wet and OAB Dry subjects: responded to treatment
